Laboratory results from patent US9987243B2, “Use of trans-palmitoleate in identifying and treating metabolic disease” (Trustees of Tufts College, priority 2010, dated 2018).

Tested on: 2,985 participants free of prevalent diabetes at baseline
Experiment: Cardiovascular Health Study: plasma phospholipid fatty acids and incident diabetes mellitus (Cox proportional-hazards)
Format: in vivo, human
Conditions: per each higher SD of the plasma phospholipid fatty acid; multivariable-adjusted (covariates as in Table 4)
Description: Plasma phospholipid fatty acids, anthropometry, blood lipids, inflammatory markers, and glucose-insulin levels were measured at baseline using standardized methods. Independent determinants of trans-palmitoleate and relationships of trans-palmitoleate with metabolic risk factors were investigated using multivariable-adjusted linear regression.
Multivariable model adjusted for age (years), gender (male/female), race (white/nonwhite), education (<high school, high school, some college, college graduate), enrollment site (four sites), smoking (never, former, current), body mass index (kg/m^2), waist circumference (cm), coronary heart disease (yes/no), physical activity (kcal/wk), alcohol use (six categories), and consumption of carbohydrate (% energy), protein (% energy), red meat (servings/week), whole-fat dairy foods (6 categories), low-fat dairy foods (five categories), and total energy (kcal/d).
Participants were followed by means of annual examinations for 10 years with interim and subsequent 6-month telephone contacts. Ives et al., 5 Ann. Epidemiol. […] At each visit, detailed medication information was obtained using medication inventories. At baseline, study interviewers visited participants in their homes and asked to see all prescription medications they had taken in the previous 2 weeks. At follow-up exams, participants brought to clinic all prescription medications taken in the previous 2 weeks. Drug names, doses, and frequencies were coded according to prescription medication Medispan files.
Relationships between phospholipid fatty acids were evaluated using Spearman correlation. Trans-palmitoleate levels were evaluated in sex-specific quintiles as indicator variables and continuously per SD difference. Independent demographic and lifestyle determinants of trans-palmitoleate were evaluated using multivariable-adjusted linear regression with trans-palmitoleate as the dependent variable. Multivariable-adjusted relationships of trans-palmitoleate with metabolic risk factors (transformed for normality as appropriate) were evaluated using linear regression with trans-palmitoleate as the independent variable. Quintiles were evaluated as ordinal variables to assess trend, to assess effect modification using the Wald test for a multiplicative interaction term, and to assess differences in baseline characteristics by means of linear or logistic regression. […] To minimize potential confounding, covariates were selected based on biologic interest, being well-established risk factors for metabolic risk, or associations with exposures/outcomes in the present cohort. […] Analyses were performed using Stata10.1 (College Station, Tex.), two-tailed alpha=0.05.

CCCCCCCCCCCCCCC(=O)O [15:0, pentadecanoic acid, reference compound]
RR of diabetes per SD: 1.01

CCCCCCCCCCCCCCCCC(=O)O [17:0, reference compound]
RR of diabetes per SD: 0.98
